We go through 1 compound from patent publication US11939361B2, “Compositions of peptide inhibitors of Interleukin-23 receptor” (Janssen Pharmaceutica NV, priority 2020, dated 2024).

Read-outs that look alike come from different tables or passages of the source.

The conditions of series [1]: in vivo.
In series [2] the test system is IL-23 induced expression of IL-17A, IL-17F, and IL-22. Nature of the series: Rat skin gene expression downstream of intradermal IL-23. The class given is in vivo, Sprague-Dawley rats. Here is the method: Ear inflammation was induced in Sprague-Dawley rats by daily intradermal injection of recombinant rat IL-23 on study days 0-3. Treatment with the peptide of SEQ ID NO: 1 (dose response by oral gavage; 1, 3, 10, 30, 100, and 300 mg/kg, twice a day) was initiated prophylactically starting one day prior to and continued through day 3 after induction of inflammation. All rats were humanely euthanized on day 4. An anti-IL-23 monoclonal antibody (administered intraperitoneally on days −1 and day 3) was included in all studies as a positive control and comparator.
Test article was dissolved into phosphate buffer at the appropriate concentrations and aliquoted for each dose and stored at 4° C. Retentions of each dose formulation were obtained after the initial preparation and following the final dose on day 3 into Eppendorf tubes and stored at −80° C. for bioanalysis of test article by LCMS.
Recombinant rat IL-23 was diluted with PBS to a concentration of 75 μg/mL, divided into 2.0 mL aliquots, and stored at −80° C. Daily from day 0 through day 3, rats were anesthetized with isoflurane and IL-23 was intradermally injected (i.d.) into the right ear (1.5 μg in a volume of 20 μL). In the control group, 20 μL of PBS was injected.
Starting the morning prior to IL-23 injection through the evening of day 3, rats were dosed with either vehicle (phosphate buffer) or the peptide of SEQ ID NO: 1 compound twice daily (approximately 10 hours apart between doses during the day) by oral gavage (p.o.) in a volume of 5 mL/kg. In one experiment, the peptide of SEQ ID NO: 1 was also administered subcutaneously (s.c.) in a volume of 5 mL/kg.
Anti-IL-23p19 antibody or isotype antibody was administered via intraperitoneal injection (i.p.) in a volume of 5 mL/kg on days −1 and 3.
At the end of the study, four days after induction with IL-23 (approximately 16 hours after the evening dose on day 3), animals were euthanized by CO2 asphyxiation. The ear tissue was weighed, snap frozen, and stored at −80° C. for gene expression analysis of inflammatory genes (IL-22, IL-17A, IL-17F, TNF). […]

Series [3] is described as follows: Colon and colonic content concentrations in rat TNBS colitis model (LC-MS/MS). The class given is in vivo, Sprague Dawley rats. The conditions noted are these: Sprague Dawley, po. The protocol:
[…] In all studies, the peptide of SEQ ID NO: 1 was dosed starting 2 days prior to TNBS induction through day 6, with euthanasia scheduled on day 7.
At the end of each study, colonic content and colon tissue samples were collected from each animal and analyzed for drug concentrations by LC-MS/MS.

In series [4] the test system is rat trinitrobenzenesulfonic acid (TNBS)-induced colitis model. Nature of the series: Rat TNBS-induced colitis model, efficacy. The class given is in vivo, Sprague-Dawley rats. The source says:
Intracolonic TNBS instillation in Sprague-Dawley rats induces colonic inflammation driven in part by IL-23/IL-23R signaling (Cheng X, Taranath R, Mattheakis L, Bhandari A, Liu D. The biomarker profile of PTG-200, an oral peptide antagonist of IL-23 receptor, tracks with efficacy in a preclinical model of IBD. J Crohns Colitis. AGA Abstracts, 2017). The TNBS rat model therefore provides a measure of the local GI effects of SEQ ID NO: 1 on IL-23/IL-23R signaling.
The peptide of SEQ ID NO: 1 was evaluated in the rat TNBS model with oral dosing only, three times a day (0.03, 0.1, 0.3, 1, 3, 10, mg/kg/day), in three independent rat TNBS experiments. In all studies, the peptide of SEQ ID NO: 1 was dosed starting 2 days prior to TNBS induction through day 6, with euthanasia scheduled on day 7.
Disease severity resulting from TNBS can be assessed by qualitative scoring of the formation of strictures, adhesions, ulceration, and increase in wall thickness as described previously. […] Based on this qualitative scoring, the peptide of SEQ ID NO: 1 at 0.1 mg/kg/day was considered to be the minimally efficacious dose for colonic score (FIG. 13).
Data from 3 different studies were combined (represented by shapes of the symbols at each dose level: study 1 (Δ), study 2 (♦), study 3 (∘); box at interquartile range, bars at minima/maxima). The colons were scored on the following parameters: adhesion (0-2), stricture (0-3), ulcer (0-5), and wall thickness (0-2) for a total sum component score range of 0-12. The colon score was reduced by treatment with the peptide of SEQ ID NO: 1 at doses of […] (ns=not significant, * p<0.05, *** p<0.001, **** p<0.0001).

For `CC(=O)NCCCC[C@@H]1NC(=O)[C@H](Cc2c[nH]c3c(C)cccc23)NC(=O)[C@H]([C@@H](C)O)NC(=O)[C@H](CC(N)=O)NC(=O)[C@@H](NC(C)=O)C(C)(C)SSC(C)(C)[C@@H](C(=O)N[C@@H](Cc2ccc(OCCN)cc2)C(=O)N[C@@H](Cc2ccc3ccccc3c2)C(=O)NC2(C(=O)N[C@@H](CCC(=O)O)C(=O)N[C@@H](CC(N)=O)C(=O)N[C@@H](Cc3cccnc3)C(=O)N(C)CC(N)=O)CCOCC2)NC1=O` [SEQ ID NO: 1, Ac-[Pen]*—N-T-[W(7-Me)]-[Lys(Ac)]-[Pen]*-Phe[4-(2-aminoethoxy)]-[2-Nal]-[THP]-E-N-[3-Pal]-Sarc-NH2], the “mean accumulation for AUC” value in series [1] (human) is given as 13-50%. In addition, the “Systemic exposure (Cmax and AUC) versus dose” value in series [1] is reported as “approximately dose-proportional”. The “median IL-17A expression in skin” value in series [2] (all tested doses (1-300 mg/kg b.i.d., oral)) is listed as “reduced”. For the same compound, the “reduction of median IL-17A expression in skin” value in series [2] (doses of 10 mg/kg (b.i.d.) or higher) is “comparable degree as anti-IL-23 antibody”. Moreover, the “IL-23 induced expression of IL-17A, IL-17F, and IL-22 in skin” value in series [2] (oral, 1-300 mg/kg b.i.d., days -1 to 3, dose dependent) is “attenuated”. Further, the tissue level at time at 168 h in series [3] (colon content, 0.033 mg/kg, Study 3, 0.033 mg/kg TID oral, total daily dose 0.1 mg/kg, read-out: Mean concentration in Colon content) worked out at 567 ng/g; in series [3] (colon content, 0.1 mg/kg, Study 2, 0.1 mg/kg TID oral, total daily dose 0.3 mg/kg, read-out: Mean concentration in Colon content) it was 1990 ng/g; in series [3] (colon content, 0.1 mg/kg, Study 3, 0.1 mg/kg TID oral, total daily dose 0.3 mg/kg, read-out: Mean concentration in Colon content) it was 3180 ng/g; in series [3] (colon content, 0.33 mg/kg, Study 2, 0.33 mg/kg TID oral, total daily dose 1 mg/kg, read-out: Mean concentration in Colon content), 7440 ng/g; in series [3] (colon content, 0.33 mg/kg, Study 3, 0.33 mg/kg TID oral, total daily dose 1 mg/kg, read-out: Mean concentration in Colon content), 6050 ng/g; in series [3] (colon content, 0.5 mg/kg, Study 2, 0.5 mg/kg BID oral, total daily dose 1 mg/kg, read-out: Mean concentration in Colon content), 11200 ng/g. For the same compound, the tissue level at time at 168 h in series [3] (colon content, 1 mg/kg, Study 2, 1 mg/kg QD oral, total daily dose 1 mg/kg, read-out: Mean concentration in Colon content) is 11700 ng/g; in series [3] (colon content, 1 mg/kg, Study 2, 1 mg/kg TID oral, total daily dose 3 mg/kg, read-out: Mean concentration in Colon content) it was 22200 ng/g; in series [3] (colon content, 1 mg/kg, Study 3, 1 mg/kg TID oral, total daily dose 3 mg/kg, read-out: Mean concentration in Colon content), 20800 ng/g; in series [3] (colon content, 3.3 mg/kg, Study 2, 3.3 mg/kg TID oral, total daily dose 10 mg/kg, read-out: Mean concentration in Colon content), 73500 ng/g; in series [3] (colon, 0.1 mg/kg, Study 3, 0.1 mg/kg TID oral, total daily dose 0.3 mg/kg, read-out: Mean concentration in Colon), 44.4 ng/g; in series [3] (colon, 0.33 mg/kg, Study 3, 0.33 mg/kg TID oral, total daily dose 1 mg/kg, read-out: Mean concentration in Colon) it was 158 ng/g. In series [3] (colon, 1 mg/kg, Study 3, 1 mg/kg TID oral, total daily dose 3 mg/kg, read-out: Mean concentration in Colon), the tissue level at time at 168 h turned out to be 509 ng/g. The TNBS-induced weight loss entry in series [4] (0.03, 0.1, 0.3, 1, 3, and 10 mg/kg/day, all 3 studies) was “prevented and reversed”. The “minimally efficacious dose, body weight” value in series [4] (day 7 as the study endpoint) turned out to be 0.3 mg/kg/day. In addition, the “minimal efficacious dose, TNBS-induced colitis model (summary)” value in series [4] (rat, in vivo) was determined as 0.3 mg/kg/day. Also, in series [4] (rat, in vivo), the “minimally efficacious dose, colonic score” value is recorded as 0.1 mg/kg/day.
